Reference: US7994119B2, “Compounds for control of appetite” (University Of Cincinnati, priority 2004, dated 2011)

What was measured:
129/J male mice = test: feeding patterns of fasted mice after intraperitoneal injection (food intake); type: in vivo; settings: mice fasted 24 hours; for control of food intake (PYY analogs): numbers only in FIGS. 3-5
Method: (§1) To study the feeding patterns of animals treated with the extended tripeptide BG-116, eight week old 129/J male mice are individually housed under 12-hour light/dark cycles with free access to water and standard chow. After acclimatizing for two weeks, mice are fasted 24 hours before the experiment. Saline (0.1 ml) or peptide (2 mg/mice) in saline (0.1 ml) is injected intraperitoneally, and the food intake during the next 4, 6, and 24 hours is monitored and quantified.
as §1, with “the O-glycosylated tripeptide,” for “the extended tripeptide BG-116,”, “next 4” for “next 4, 6,”, “and 6” for “and 24”
as §1, with “with BT-48 or N-α-Ac[Nle^24,28, Trp^30, Nva^31, ψ^35/36]PYY(22-36)-NH2 wherein ψ is —CH2-NH— (SEQ. ID. NO. 8),” for “with the extended tripeptide BG-116,”, “peptide (100 μg/mice)” for “peptide (2 mg/mice)”, “next 4” for “next 4, 6,”, “and 6” for “and 24”
as §1, with “BT-56 or N-α-Ac-[Trp^27, ψ^35/36]PYY(25-36)-NH2 wherein ψ is —CH2-NH— (SEQ. ID. NO. 7),” for “extended tripeptide BG-116,”, “(100 μg/mice)” for “(2 mg/mice)”, “4” for “4, 6, and 24”
as §1, with “BWX-115 or N-α-Ac-[Trp^30]PYY(25-36)-NH2 wherein ψ is —CH2-NH— (SEQ. ID. NO. 6),” for “the extended tripeptide BG-116,”, “(20 μg/mice)” for “(2 mg/mice)”, “4” for “4, 6,”

[1] = test system: normal and fasted mice and rats, normal and obese humans; settings: peripheral administration; cited from earlier work
Y5 = target: T1, Y5 (Homo sapiens, UniProt Q15761); settings: cited from earlier work
T1 sequence (Q15761 1-445): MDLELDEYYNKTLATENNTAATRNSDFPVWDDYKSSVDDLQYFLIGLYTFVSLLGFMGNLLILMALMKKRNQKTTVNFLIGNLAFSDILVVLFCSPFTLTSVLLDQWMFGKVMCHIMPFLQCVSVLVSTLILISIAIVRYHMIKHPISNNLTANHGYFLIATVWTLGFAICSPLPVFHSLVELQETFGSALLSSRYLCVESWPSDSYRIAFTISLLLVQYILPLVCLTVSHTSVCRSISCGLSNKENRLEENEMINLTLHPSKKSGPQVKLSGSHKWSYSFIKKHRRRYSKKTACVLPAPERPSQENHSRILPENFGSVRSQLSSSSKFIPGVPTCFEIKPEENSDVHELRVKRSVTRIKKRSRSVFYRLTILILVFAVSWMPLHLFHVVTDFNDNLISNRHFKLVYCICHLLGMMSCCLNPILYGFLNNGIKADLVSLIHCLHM

Y4 = Y4 (Homo sapiens, UniProt P50391); settings: cited from earlier work
Chain of Y4 (P50391 whole entry): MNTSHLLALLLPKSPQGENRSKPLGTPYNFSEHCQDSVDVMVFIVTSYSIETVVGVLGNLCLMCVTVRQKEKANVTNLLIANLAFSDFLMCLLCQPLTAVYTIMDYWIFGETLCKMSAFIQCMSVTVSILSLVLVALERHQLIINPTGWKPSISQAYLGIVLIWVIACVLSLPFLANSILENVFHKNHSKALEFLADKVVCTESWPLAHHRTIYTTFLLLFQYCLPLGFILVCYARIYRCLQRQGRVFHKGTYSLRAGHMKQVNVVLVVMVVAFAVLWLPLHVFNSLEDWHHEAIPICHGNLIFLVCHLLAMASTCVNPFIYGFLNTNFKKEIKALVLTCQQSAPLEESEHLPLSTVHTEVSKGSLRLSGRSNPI

## N-α-Ac-Trp-Arg-Tyr-[β-D-Glc]-NH2 [BG-7]
129/J male mice; numbers only in FIG. 2
  inhibition of feeding (O-glycosylated tripeptide): can inhibit feeding in subjects

## N-α-Ac-[Trp^27, ψ^35/36]PYY(25-36)-NH2 (Ac-RHWLNLVTRQRY-NH2; also: reduced CH2-NH bond between residues 35/36) [BT-56]
129/J male mice
  control of food intake (PYY analogs): could be used to control food intake in animals and humans

## N-α-Ac-[Trp^30]PYY(25-36)-NH2 (Ac-RHYLNWVTRQRY-NH2) [BWX-115]
129/J male mice
  control of food intake (PYY analogs): could be used to control food intake in animals and humans

## N-α-Ac[Nle^24,28, Trp^30, Nva^31, ψ^35/36]PYY(22-36)-NH2 (ASXRHYXNWXTRQRY; N-acetyl, C-amide, reduced CH2-NH bond 35/36; Artficial peptide) [BT-48]
129/J male mice
  control of food intake (PYY analogs): could be used to control food intake in animals and humans

## PYY(3-36): a NPY Y2-preferring ligand
[1]
  food intake: attenuate food intake
Y5
  activation of Y5 receptors: potently activate
Y4
  activation of Y4 receptors: potently activate
